Reference: ChEMBL document CHEMBL3217554, “Fast and effective identification of the bioactive compounds and their targets from medicinal plants via computational chemical biology approach” (Medchemcomm, 2011)

Each compound was assayed against Dipeptidyl peptidase 4 (Homo sapiens, UniProt P27487) (assay: Inhibition of human DPP4 using H-Gly-Pro-AMC peptide substrate assessed as increase in fluorescence for 20 mins by fluorimetric assay).
Chain of Dipeptidyl peptidase 4 (P27487 whole entry): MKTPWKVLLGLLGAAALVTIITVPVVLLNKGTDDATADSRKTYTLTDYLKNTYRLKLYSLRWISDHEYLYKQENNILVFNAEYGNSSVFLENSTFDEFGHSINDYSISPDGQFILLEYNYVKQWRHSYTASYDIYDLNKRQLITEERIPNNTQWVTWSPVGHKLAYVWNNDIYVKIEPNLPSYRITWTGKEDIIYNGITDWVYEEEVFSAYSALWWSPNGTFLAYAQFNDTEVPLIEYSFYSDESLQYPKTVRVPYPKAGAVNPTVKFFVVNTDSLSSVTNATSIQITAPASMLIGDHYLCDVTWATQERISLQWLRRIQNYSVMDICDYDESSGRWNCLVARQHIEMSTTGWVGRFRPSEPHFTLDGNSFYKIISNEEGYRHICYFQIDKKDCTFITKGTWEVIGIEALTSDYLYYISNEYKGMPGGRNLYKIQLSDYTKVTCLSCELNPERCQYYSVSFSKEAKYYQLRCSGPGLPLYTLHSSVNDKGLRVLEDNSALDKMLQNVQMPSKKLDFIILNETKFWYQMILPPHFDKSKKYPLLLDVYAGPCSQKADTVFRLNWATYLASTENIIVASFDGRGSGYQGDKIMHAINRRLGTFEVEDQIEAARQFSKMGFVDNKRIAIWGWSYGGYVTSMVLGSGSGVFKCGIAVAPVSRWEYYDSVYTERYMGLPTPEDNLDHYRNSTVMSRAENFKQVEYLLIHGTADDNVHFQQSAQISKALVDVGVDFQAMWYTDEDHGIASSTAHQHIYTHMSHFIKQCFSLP

Compound	IC50 [µM]
CC[C@H](CC[C@@H](C)[C@H]1CC[C@H]2[C@@H]3CC=C4C[C@@H](O)CC[C@]4(C)[C@H]3CC[C@]12C)C(C)C [BETA-SITOSTEROL]	28.8
C=C(C)[C@@H]1CC[C@]2(C(=O)O)CC[C@]3(C)[C@H](CC[C@@H]4[C@@]5(C)CC[C@H](O)C(C)(C)[C@@H]5CC[C@]43C)[C@@H]12 [BETULINIC ACID]	55.8
O=c1c(O)c(-c2cc(O)c(O)c(O)c2)oc2cc(O)cc(O)c12 [MYRICETIN]	37.1
O=C(CC(O)CCc1ccccc1)c1ccc(O)cc1 (stereo not drawn)	38.4
O=C(O)/C=C/c1ccc(O)cc1 [COUMARIC ACID]	83.2
O=c1c(O)c(-c2ccc(O)c(O)c2)oc2cc(O)cc(O)c12 [QUERCETIN]	32.7
CCOC(=O)/C=C/c1ccc(O)c(O)c1 [ETHYL CAFFEATE]	87.7

Results, then the compound that gave them:

IC50 [µM]	Compound
56.2	COc1ccc2c(c1OC)CN(C)c1c-2ccc2cc3c(cc12)OCO3 [DIHYDROCHELERYTHRINE]
87.1	COc1cc2cc(Oc3ccc4ccc(=O)oc4c3)c(=O)oc2cc1O [DAPHNORETIN]
26.9	O=C(/C=C/c1ccc(O[C@@H]2O[C@H](CO)[C@@H](O)[C@H](O)[C@H]2O)cc1)c1ccc(O)cc1O [ISOLIQUIRITIN]
33.1	COc1cc(O)c(C(=O)/C=C/c2ccc(O)cc2)c(OC)c1 [FLAVOKAWAIN C]
114	CCOC(=O)c1c(O)cc(O)c2c1OC(c1ccc(O)cc1)CC2 (stereo not drawn)
41.4	COC(=O)C1(O)CC(O)C(O)C(OC(=O)/C=C/c2ccc(O)c(O)c2)C1 (stereo not drawn)
